Measured values as given in patent US20210220482A1, “MITOCHONDRIAL COPPER DEPLETION REPROGRAMS THE METABOLISM OF TRIPLE NEGATIVE BREAST CANCER” (The Board of Trustees of the Leland Stanford Junior …, priority 2019, published 2021).
Where two headings read alike, the source gives them in different places.

Experiments:
[1] = system: MDA-MB-231 orthotopic tumors; experiment: Long-term survival study; format: in vivo, nude mice; conditions: i.v. weekly, seven doses, chelator 1.35 mg kg^−1; ATN224 oral gavage 0.7 mg kg^−1 d^−1
Description: The SPN group received an i.v. injection of the same amount of SPN as in the CDN group weekly for seven doses in total. […] The treatment plan was initiated when the average tumor size reached 50 mm^3 and the endpoint of the survival study was primary tumor volume over 500 mm^3 and/or other signs identified by the veterinarian. The tumor volumes were continuously monitored over the treatment plan.

[2] = system: MDA-MB-231 and MDA-MB-468 cells; experiment: Western blot of cleaved caspase 3 (apoptosis); format: cell-based, human; conditions: 24 h incubation; CDM 1 μM, ATN224 5 μM, inhibitors 1 μM
Description: Then cells were trypsinized, and cell lysates were prepared with RIPA buffer (Thermo, cat. no. 89900). The protein concentrations were quantified by Pierce BCA assay (Thermo Scientific, 23250). Cleaved caspase 3 antibody was purchased from Cell Signaling Technologies (Asp175, no. 9661). SOD1 antibody was from Santa Cruz Biotechnologies (sc-101523).

MDA-MB-231luc cells = experiment: In vitro copper depletion (CCL-1 luminescence, CDM fluorescence); format: cell-based, human; conditions: CDN (CDM 1 μM) with excess EDTA, 24 h
Description: In vitro copper depletion: The copper level after CDN or control agent treatment was measured by CCL-1 luminescence imaging or ratiometric fluorescence microscopic imaging of fCDN. […] SPN, 50 μg ml-1) was added and incubation was continued for 24 h. […] Cells were immediately imaged by IVIS Spectrum (PerkinElmer) for 45 min. The integration images of luminescent radiance were presented. […] Images were processed as green/red ratios profiled by ImageJ and presented in pseudo-colors.

MDA-MB-231 cells = experiment: Cytotoxicity MTS assay, MDA-MB-231; format: cell-based, human; conditions: MDA-MB-231, 24 h, in the presence of serum, read-out: half-maximum inhibitory concentration (IC50)
Description: (§1) Cytotoxicity: For the MTS assay, TNBC and normal cells were seeded into 96-well plates 24 h before the test and cultured in a humidified atmosphere of 5% CO2 and 95% air at 37° C. Cells were then incubated with CDN or control agents with the concentrations indicated in FIG. 2 in complete medium or base medium without FBS supplement. At 24 h after incubation, cells were washed with PBS three times and changed to fresh medium. The viability of the cells after treatment was measured using the MTS assay (CellTiter 96, Promega, cat. no. G3580). The viability was presented as the percentage of control (n=3 per condition for viability). For the trypan blue exclusion test, TNBC cells were seeded into six-well plates 24 h before the test and cultured in a humidified atmosphere of 5% CO2 and 95% air at 37° C. Cells were then incubated with CDN or control agents in complete medium. At 24 h after incubation, cells were washed with PBS three times and collected with a scraper. The cell suspension was then mixed with 0.4% trypan blue dye (1:1; Thermo Fisher Scientific, cat. no. 15250061) and incubated for less than 3 min at room temperature. The viability of the cells was measured with Countess II (Life Technology). The viability was presented as the percentage of control (n=3 per condition for viability).

[3] = system: MDA-MB-231luc orthotopic breast cancer; experiment: Copper level in tumor after treatment (CCL-1/d-luciferin imaging); format: in vivo, mice; conditions: i.v. 1.35 mg kg^−1 every 3 d, day 25, compared with the control group
Description: For the treatment group, mice were intravenously injected with CDN or control agents every 3 d, with five doses in total. Tumor volume was continuously monitored over the treatment plan. At day 25 after initial treatment, mice were subjected to d-luciferin bioluminescence imaging (150 mg kg^−1) and CCL-1 luminescence imaging (6 mg kg^−1).

MDA-MB-468 cells = experiment: Cytotoxicity MTS assay, MDA-MB-468; format: cell-based, human; conditions: MDA-MB-468, 24 h, in the presence of serum
Description: as §1

[4] = system: MDA-MB-231 and MDA-MB-468 cells; experiment: OCR and ECAR measurement (Seahorse); format: cell-based, human; conditions: after 1 h of incubation, both cell lines, vs nontreated control
Description: OCR and ECAR measurement. OCR and ECAR were measured by a Seahorse Bioscience instrument (XF96, Agilent). Briefly, on the day following MDA-MB-231 or MDA-MB-468 cell seeding, cells were incubated with CDN or control agents for 24 h (chelator concentration, 1 μM). On the day of measurement, cells were washed three times with D-PBS, changed into fresh medium without phenol red and bicarbonate (Seahorse base medium, cat. no. 103336-100) and equilibrated for 30 min in a 37° C. incubator lacking CO2. Oxygen concentration and extracellular acidification in media were measured at basal conditions and after sequential addition of oligomycin (1 μM, introduced after 28 min), FCCP (1 μM, introduced after 54 min) and rotenone/antimycin A (0.5 μM, introduced after 80 min) (n=8 per condition for OCR and ECAR for each cell line). […] Cells were then changed into Seahorse base medium and equilibrated for 30 min in a 37° C. incubator lacking CO2. Oxygen concentration and extracellular acidification in media were measured at basal conditions and after sequential addition of oligomycin (1 μM, introduced after 28 min), FCCP (1 μM, introduced after 54 min) and rotenone/antimycin A (0.5 μM, introduced after 80 min) (n=6 per condition for OCR and ECAR for each cell line).

[5] = system: MDA-MB-231 and MDA-MB-468 cells; experiment: Cell viability with ROS scavenger MitoTEMPO; format: cell-based, human; conditions: MitoTEMPO up to 5 μM
Description: as §1, with “medium. […]” for “medium. At 24 h after incubation, cells were washed with PBS three times and collected with a scraper. The cell suspension was then mixed with 0.4% trypan blue dye (1:1; Thermo Fisher Scientific, cat. no. 15250061) and incubated for less than 3 min at room temperature.”, “Technology). […]” for “Technology). The viability was presented as the percentage of control (n=3 per condition for viability).”
Cellular ATP measurement: ATP levels after CDN or control agent treatment were determined by Adenosine 5-triphosphate Bioluminescent Somatic Cell Assay Kit (Sigma-Aldrich, FLASC). […] The luminescence signals were measured by a Turner Biosystems 20/20n luminometer. The ATP concentration of each group was determined based on the ATP standard assay (n=3 per condition ATP production measurement for each cell line).

Q: What does the source list for `C[N+](C)(C)CCO.C[N+](C)(C)CCO.[SH-].[SH-].[S]=[Mo]=[S]` [ATN224]?
A: median survival [1]: 32 days; apoptosis (cleaved caspase 3) [2]: but not with ATN224 treatment

Q: With `O=C(O)CN(CCN(CC(=O)O)CC(=O)O)CC(=O)O` [EDTA, ethylenediaminetetraacetic acid] as the compound, how does the “CCL-1 luminescence (labile copper)” value (MDA-MB-231luc cells) read?
A: 78.6±11.7 % of the CDN group

Q: And the CDM fluorescence (MDA-MB-231luc cells)?
A: 123.7±4.1 % of the CDN group

Q: How did the IC50 (MDA-MB-231 cells; Homo sapiens) turn out when `c1ccc(CN(Cc2ccccn2)Cc2ccccn2)nc1` [TPA, tris[(2-pyridyl)-methyl]amine] was run?
A: 9.25 ± 2.19 µM

Q: What about the median survival [1] of the same compound?
A: 35 days

Q: What about the “copper in the tumor region (CCL-1 to d-luciferin total flux ratio)” value [3] of the same compound?
A: successfully depleted the copper in the tumor region

Q: What about the IC50 (MDA-MB-468 cells; Homo sapiens) of the same compound?
A: 5.34 ± 1.12 µM

Q: What does the source list for `Cc1nc(-c2nc(-c3ccc(OC(F)(F)F)cc3)no2)nn1Cc1cccc(N2CCC(S(C)(=O)=O)CC2)c1` [IACS-010759]?
A: apoptosis (cleaved caspase 3) [2]: barely induced apoptosis; oxygen consumption (OCR) [4]: almost completely inhibited the oxygen consumption

Q: Which “rescue of cells from the CDN treatment effect” value ([5]; CDM 1 μM, 24 h) does the source give for `CC1(C)CC(NC(=O)C[P+](c2ccccc2)(c2ccccc2)c2ccccc2)CC(C)(C)N1[O]` [MitoTEMPO] here?
A: did not rescue the cells

Q: And the “effect on cell viability” value ([5]; medium with or without FBS)?
A: will not affect the cell viability

Q: Which IC50 (MDA-MB-231 cells) does the source give for `[SH-].[SH-].[S]=[Mo]=[S]` [TM, tetrathiomolybdate] here?
A: > 100 µM

Q: What about the IC50 (MDA-MB-468 cells) of the same compound?
A: ~46.3 µM

Q: For `Cc1cc(-c2nc(-c3ccc(OC(F)(F)F)cc3)no2)nn1Cc1ccnc(N2CCN(C3CC3)CC2)c1` [BAY 87-2243], which “apoptosis (cleaved caspase 3)” value [2] is on record?
A: barely induced apoptosis

Q: What about the “oxygen consumption (OCR)” value [4] of the same compound?
A: almost completely inhibited the oxygen consumption
